Measurements from patent US9790169B2, “IDO inhibitors” (BRISTOL-MYERS SQUIBB COMPANY, priority 2015, dated 2017).

Target: human IDO1 (Homo sapiens, UniProt P14902)
Assay: Assessment of human IDO-1 inhibitory activity in HEK cells (human IDO1/HEK293 cells, kynurenine read-out with Ehrlich reagent, absorbance 490 nm)
Assay type: cell-based
Parameters: expressed in transfected cells
Conditions: HEK Human IDO-1 cellular assay
Method in brief: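 Kynurenine output from stably IDO1-transfected HEK293 cells (10,000/well, phenol red-free RPMI, 10% FBS) after 20 h compound exposure at 37 °C. The reaction was stopped with 0.2% TCA and heated 30 min at 50 °C, then the supernatant was mixed with Ehrlich reagent and read at 490 nm. IC50 was set against DMSO and a 500 nM reference standard as 0 and 100% inhibition.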

Chain of human IDO1 (P14902 whole entry): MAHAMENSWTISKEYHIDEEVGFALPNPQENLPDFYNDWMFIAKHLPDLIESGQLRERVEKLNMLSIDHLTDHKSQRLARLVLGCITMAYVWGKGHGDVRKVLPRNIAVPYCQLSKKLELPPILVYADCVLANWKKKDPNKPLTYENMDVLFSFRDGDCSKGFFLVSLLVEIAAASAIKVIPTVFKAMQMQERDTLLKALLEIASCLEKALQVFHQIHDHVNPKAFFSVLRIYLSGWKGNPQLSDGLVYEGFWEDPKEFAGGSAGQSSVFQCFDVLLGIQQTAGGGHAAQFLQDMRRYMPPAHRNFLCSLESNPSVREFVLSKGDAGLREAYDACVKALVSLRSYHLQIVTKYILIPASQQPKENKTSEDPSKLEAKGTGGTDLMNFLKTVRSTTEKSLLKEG

Row | Compound | IC50 [nM]
1 | Cc1ccc(NC(=O)Nc2cc(C(C)CC(=O)O)ccc2N(CC(C)C)C2CCOCC2)cc1 (single isomer, unassigned) [Example 958, 3-(4-(Isobutyl(tetrahydro-2H-pyran-4-yl)amino)-3-(3-(p-tolyl)ureido)phenyl)butanoic acid] | < 50
2 | CCC(CC(=O)O)c1cc(F)c(N(CC(C)C)CC(C)C)c(Nc2cnc(OC)nc2)c1 (single isomer, unassigned) [Example 104, 3-(4-(diisobutylamino)-3-fluoro-5-((2-methoxypyrimidin-5-yl)amino)phenyl) pentanoic acid] | < 5
3 | CCC(CC(=O)O)c1ccc(N2CCC[C@H]2C(C)(C)O)c(Nc2cnc(OC)nc2)c1 (single isomer, unassigned) [Example 824] | > 50
4 | COCC(CC(=O)O)c1ccc(N(CC2CC2)C2CCOCC2)c(Nc2ccc(C#N)c(C)c2)c1 (single isomer, unassigned) [Example 686, 3-(3-((4-cyano-3-methylphenyl)amino)-4-((cyclopropylmethyl) (tetrahydro-2H-pyran-4-yl)amino)phenyl)-4-methoxybutanoic acid] | < 5
5 | CCC(CC(=O)O)c1ccc(N(CC2CC2)C2CCOCC2)c(NC(=O)Nc2ccc(Cl)cc2F)c1 (single isomer, unassigned) [Example 696, 3-(3-(3-(4-Chloro-2-fluorophenyl)ureido)-4-((cyclopropylmethyl)(tetrahydro-2H-pyran-4-yl)amino)phenyl)pentanoic acid] | < 5
6 | CC[C@@H](CC(=O)O)c1ccc(N(CC(C)C)CC(C)C)c(Nc2ccc(Cl)cc2)c1 (single isomer, unassigned) [Example 11] | < 50
7 | CCN(c1ccc(C(C)CC(=O)O)cc1Nc1cnc(C)nc1)C1CCOCC1 (single isomer, unassigned) [Example 623, 3-(4-(ethyl(tetrahydro-2H-pyran-4-yl)amino)-3-((2-methylpyrimidin-5-yl)amino)phenyl)butanoic acid] | < 50
8 | CC(C)CN(c1ccc(C(CC(=O)O)C2CC2)cc1NC(=O)Nc1cncnc1)C1CCOCC1 (single isomer, unassigned) [Example 1207 Enantiomer 1, 3-Cyclopropyl-3-(4-(isobutyl(tetrahydro-2H-pyran-4-yl)amino)-3-(3-(pyrimidin-5-yl)ureido)phenyl)propanoic acid] | > 50
9 | COCC(CC(=O)O)c1ccc(N(CC(C)C)CC(C)C)c(NC(=O)Nc2cncnc2)c1 (single isomer, unassigned) [997-2] | < 50
10 | CCC(CC(=O)O)c1ccc(N2CCOC[C@H]2C(C)C)c(Nc2ccc(Cl)cc2)c1 (single isomer, unassigned) [Example 900] | < 5
11 | CCC(CC(=O)O)c1cc(NC(=O)Nc2cc(C)no2)c(N(CC(C)C)C2CCCCC2)cc1F (racemic) [Example 1113, (±)-3-(4-(Cyclohexyl(isobutyl)amino)-2-fluoro-5-(3-(3-methylisoxazol-5-yl)ureido)phenyl)pentanoic acid] | < 5
12 | CC[C@H](CC(=O)O)c1ccc(N2CCC[C@H]2C(C)(C)O)c(NC(=O)Nc2ccc(C)cc2)c1 (single isomer, unassigned) [Example 767] | > 50
13 | CCOc1ncc(Nc2cc(C(C)(C)CC(=O)O)ccc2N(CC)C2CCOCC2)cn1 [Example 159, 3-(3-((2-Ethoxypyrimidin-5-yl)amino)-4-(ethyl(tetrahydro-2H-pyran-4-yl)amino)phenyl)-3-methylbutanoic acid] | < 50
14 | CC(C)CN(CC(C)C)c1ccc(C(C)(C)CC(=O)O)cc1Nc1ccc2c(c1)OC(F)(F)O2 [Example 147, 3-(3-((2,2-difluorobenzo[d][1,3]dioxol-5-yl)amino)-4-(diisobutylamino)phenyl)-3-methylbutanoic acid] | < 50
15 | COCC(CC(=O)O)c1cc(F)c(N(CC(C)C)C2CCCCC2)c(NC(=O)Cc2ccc(C)cc2)c1 (single isomer, unassigned) [Example 1170, 3-(4-(cyclohexyl(isobutyl)amino)-3-fluoro-5-(2-(p-tolyl)acetamido)phenyl)-4-methoxybutanoic acid] | < 50
16 | COCC(CC(=O)O)c1ccc(N(CC(C)C)C2CCOCC2)c(NC(=O)Nc2ccc(Cl)cc2F)c1 (single isomer, unassigned) [Example 1217, 3-(3-(3-(4-Chloro-2-fluorophenyl)ureido)-4-(isobutyl(tetrahydro-2H-pyran-4-yl)amino)phenyl)-4-methoxybutanoic acid] | < 5
17 | CCN(c1ccc(C(C)(C)CC(=O)O)cc1Nc1cnc(OCC2CC2)nc1)C1CCOCC1 [Example 163, 3-(3-((2-(cyclopropylmethoxy)pyrimidin-5-yl)amino)-4-(ethyl (tetrahydro-2H-pyran-4-yl)amino)phenyl)-3-methylbutanoic acid] | < 5
18 | CCN(c1ccc(C(C)CC(=O)O)cc1Nc1cnc(OC)nc1)C1CCOCC1 (single isomer, unassigned) [Example 633, 3-(4-(ethyl(tetrahydro-2H-pyran-4-yl)amino)-3-((2-methoxypyrimidin-5-yl)amino)phenyl)butanoic acid] | < 50
19 | 3-(4-(isobutyl(tetrahydro-2H-pyran-4-yl)amino)-3-(3-(4-phenoxyphenyl)ureido)phenyl)butanoic acid [Example 959] | < 5

Row | Compound | IC50 [nM]
20 | CC[C@@H](CC(=O)O)c1ccc(N(CC(C)(C)O)C2CCCCC2)c(Nc2ccc(OC(F)F)cc2)c1 (single isomer, unassigned) [Example 226] | < 5
21 | CCOc1ccc(NC(=O)Nc2cc(C(COC)CC(=O)O)ccc2N(CC(C)C)C2CCCCC2)c(F)c1 (single isomer, unassigned) [Example 1232, 3-(4-(Cyclohexyl(isobutyl)amino)-3-(3-(4-ethoxy-2-fluorophenyl)ureido)phenyl)-4-methoxybutanoic acid] | < 50
22 | CCN(c1ccc([C@@H](COC)CC(=O)O)cc1Nc1ccc2nc(C)sc2c1)C1CCOCC1 (single isomer, unassigned) [Example 377] | < 50
23 | CCOc1ccc(NC(=O)Nc2cc(C(COC)CC(=O)O)ccc2N(CC(C)C)C2CCOCC2)c(F)c1 (single isomer, unassigned) [Example 1222, 3-(3-(3-(4-Ethoxy-2-fluorophenyl)ureido)-4-(isobutyl(tetrahydro-2H-pyran-4-yl)amino)phenyl)-4-methoxybutanoic acid] | < 50
24 | CC(C)CN(CC(C)C)c1ccc(C(CC(=O)O)c2ccccc2)cc1NC(=O)Nc1ccc(OC(F)(F)F)cc1 (racemic) [Example 1009, (+/−)3-(4-(Diisobutylamino)-3-(3-(4-(trifluoromethoxy)phenyl)ureido)phenyl)-3-phenylpropanoic acid] | > 50
25 | COCC(CC(=O)O)c1ccc(N(CC(C)C)CC(C)C)c(NC(=O)Nc2ccc(C)cc2)c1 (single isomer, unassigned) [993-1] | < 50
26 | Cc1ccc(NC(=O)Nc2cc(C(CC(=O)O)C3CC3)ccc2N(CC(C)C)C2CCOCC2)cc1 (single isomer, unassigned) [1202 E2] | < 5
27 | COCC(CC(=O)O)c1cc(F)c(N(CC(C)C)C2CCCCC2)c(NC(=O)Nc2ccc(Cl)cc2F)c1 (single isomer, unassigned) [Example 1156, 3-(3-(3-(4-chloro-2-fluorophenyl)ureido)-4-(cyclohexyl(isobutyl)amino)-5-fluorophenyl)-4-methoxybutanoic acid] | < 5
28 | COCC(CC(=O)O)c1cc(F)c(N(CC(C)C)C2CCCCC2)c(NC(=O)Nc2ccc(OC(F)(F)F)cc2)c1 (single isomer, unassigned) [Example 1154, 3-(4-(cyclohexyl(isobutyl)amino)-3-fluoro-5-(3-(4-(trifluoromethoxy)phenyl)ureido)phenyl)-4-methoxybutanoic acid] | < 50
29 | CCOc1ccc(NC(=O)Nc2cc(C(COC)CC(=O)O)cc(F)c2N(CC(C)C)C2CCCCC2)cc1 (single isomer, unassigned) [Example 1153, 3-(4-(cyclohexyl(isobutyl)amino)-3-(3-(4-ethoxyphenyl)ureido)-5-fluorophenyl)-4-methoxybutanoic acid] | < 50
30 | CCC(CC(=O)O)c1ccc(N(CC(C)C)CC(C)(C)O)c(Nc2ccc3nc(C)sc3c2)c1 (racemic) [Example 452, 3-(4-((2-Hydroxy-2-methylpropyl)(isobutyl)amino)-3-((2-methylbenzo[d]thiazol-6-yl)amino)phenyl)pentanoic acid] | > 50
31 | CCC(CC(=O)O)c1ccc(N2CCC[C@H]2C(C)(C)O)c(NC(=O)Nc2cc(C)on2)c1 (single isomer, unassigned) [Example 815] | > 50
32 | CCC(CC(=O)O)c1cc(NC(=O)Nc2cc(C)no2)c(N(CC(C)C)C2CCCCC2)cc1F (single isomer, unassigned) [Example 1114, 3-(4-(Cyclohexyl(isobutyl)amino)-2-fluoro-5-(3-(3-methylisoxazol-5-yl)ureido)phenyl)pentanoic acid] | < 5
33 | CC[C@@H](CC(=O)O)c1ccc(N(CC(C)(C)O)C2CCOCC2)c(Nc2ccc(Cl)c(OCC(F)(F)F)c2)c1 (single isomer, unassigned) [Example 200] | < 50
34 | CC[C@H](CC(=O)O)c1ccc(N2CCC[C@@H]2C(C)(C)O)c(NC(=O)Nc2ccc(C)cc2)c1 (single isomer, unassigned) [Example 774] | > 50
35 | COCC(CC(=O)O)c1cc(F)c(N(CC(C)C)CC(C)C)c(NC(=O)Nc2ccc(C)cc2)c1 (single isomer, unassigned) [Example 1186, 3-(4-(Diisobutylamino)-3-fluoro-5-(3-(p-tolyl)ureido)phenyl)-4-methoxybutanoic acid] | < 5
36 | CCC(CC(=O)O)c1ccc(N2CCOC[C@H]2C(C)C)c(NC(=O)Nc2cc(C)on2)c1 (single isomer, unassigned) [Example 898] | > 50
37 | CC[C@H](CC(=O)O)c1ccc(N(CC2CC2)CC(C)(C)O)c(Nc2ccc(Cl)cc2)c1 (single isomer, unassigned) [Example 271] | < 5
